# Assay results from patent publication US10800816B2 (Baxalta GmbH, priority 2012, dated 2020).
# *1 amine or outer side, *2 acyl side, *3 side chain or, on linkers, in order; H or OH if unused. Where a SMILES comes first, the peptide text is derived from it. Bridges are numbered along the chain shown (N, C = ends). Side-chain parts run from the residue outwards. [ ]: non-standard residue; d: D form. The star is where a group is joined. TTDA(Palmitoyl) = CCCCCCCCCCCCCCCC(=O)NCCCOCCOCCOCCCN*; Suc = O=C(CCC(=O)[*:2])[*:1]; Tle = CC(C)(C)[C@H](N)C(=O)O; Hexanoyl = CCCCCC(=O)*; Aib = CC(C)(N)C(=O)O; Acm = CC(=O)NC*; Sar = CNCC(=O)O
# System: not listed separately
# Assay: FIGURE 78M
row,Compound,24 h Human Plasma Stability | Mean Remaining [%]
1,CC(=O)N[C@@H](Cc1ccccc1)C(=O)N[C@@H](CCC(N)=O)C(=O)N[C@@H](CO)C(=O)N[C@@H](CCCCN)C(=O)N1CCC[C@@H]1C(=O)N[C@@H](CC(N)=O)C(=O)N[C@H](C(=O)N[C@@H](Cc1c[nH]cn1)C(=O)N[C@H](C(=O)N[C@@H](CS)C(=O)NCC(=O)N[C@@H](Cc1ccc(O)cc1)C(=O)N[C@@H](Cc1ccccc1)C(=O)N[C@@H](CCC(=O)O)C(=O)N[C@@H](CCCNC(=N)N)C(=O)N[C@@H](CC(C)C)C(=O)NC(C)(C)C(=O)N[C@@H](C)C(=O)N[C@@H](CCCCN)C(=O)N[C@@H](CC(C)C)C(N)=O)C(C)C)C(C)C [JBT00002371],31.20
2,"CC[C@H](NC(=O)[C@H](Cc1c[nH]cn1)NC(=O)[C@@H](NC(=O)[C@H](CC(N)=O)NC(=O)[C@H]1CCCN1C(=O)[C@H](CCCCN)NC(=O)[C@H](CO)NC(=O)[C@H](CCC(N)=O)NC(=O)[C@H](Cc1ccccc1)NC(C)=O)C(C)C)C(=O)N[C@@H](CC(=O)O)C(=O)NCC(=O)N[C@@H](Cc1ccc(O)cc1)C(=O)N[C@@H](Cc1ccccc1)C(=O)N[C@@H](CCC(=O)O)C(=O)N[C@@H](CCCNC(=N)N)C(=O)N[C@@H](CC(C)C)C(=O)NC(C)(C)C(=O)N[C@@H](C)C(=O)N[C@@H](CCCCN)C(=O)N[C@@H](CC(C)C)C(=O)N[C@@H](CSC1CC(=O)N(CC)C1=O)C(N)=O (some centres unmarked) [JBT00002381, Ac-FQSKpNVH-Abu-DGYFERL-Aib-AKLC(NEM)-NH2]",17.30
3,"CCN1C(=O)CC(SC[C@H](NC(=O)[C@H](CC(C)C)NC(=O)[C@H](CCCCN)NC(=O)[C@H](C)NC(=O)C(C)(C)NC(=O)[C@H](CC(C)C)NC(=O)[C@H](CCCNC(=N)N)NC(=O)[C@H](CCC(=O)O)NC(=O)[C@H](Cc2ccccc2)NC(=O)[C@H](Cc2ccc(O)cc2)NC(=O)CNC(=O)[C@H](CC(=O)O)NC(=O)[C@H](CC(F)(F)F)NC(=O)[C@H](Cc2c[nH]cn2)NC(=O)[C@@H](NC(=O)[C@H](CC(N)=O)NC(=O)[C@H]2CCCN2C(=O)[C@H](CCCCN)NC(=O)[C@H](CO)NC(=O)[C@H](CCC(N)=O)NC(=O)[C@H](Cc2ccccc2)NC(C)=O)C(C)C)C(N)=O)C1=O (stereo partly drawn) [JBT00002382, Ac-FQSKpNVH-(L-2-Amino-4,4,4-trifluorobutyric acid)- DGYFERL-Aib-AKLC(NEM)-NH2]",20.50
4,"CCN1C(=O)CC(SC[C@H](NC(=O)[C@H](CC(C)C)NC(=O)[C@H](CCCCN)NC(=O)[C@H](C)NC(=O)C(C)(C)NC(=O)[C@H](CC(C)C)NC(=O)[C@H](CCCNC(=N)N)NC(=O)[C@H](CCC(=O)O)NC(=O)[C@H](Cc2ccccc2)NC(=O)[C@H](Cc2ccc(O)cc2)NC(=O)CNC(=O)[C@H](CC(=O)O)NC(=O)[C@@H](NC(=O)[C@H](Cc2c[nH]cn2)NC(=O)[C@@H](NC(=O)[C@H](CC(N)=O)NC(=O)[C@H]2CCCN2C(=O)[C@H](CCCCN)NC(=O)[C@H](CO)NC(=O)[C@H](CCC(N)=O)NC(=O)[C@H](Cc2ccccc2)NC(C)=O)C(C)C)C2CCCC2)C(N)=O)C1=O (some centres unmarked) [JBT00002383, Ac-FQSKpNVH-Cpg-DGYFERL-Aib-AKLC(NEM)-NH2]",31.00
5,"CCN1C(=O)CC(SC[C@H](NC(=O)[C@H](CC(C)C)NC(=O)[C@H](CCCCN)NC(=O)[C@H](C)NC(=O)C(C)(C)NC(=O)[C@H](CC(C)C)NC(=O)[C@H](CCCNC(=N)N)NC(=O)[C@H](CCC(=O)O)NC(=O)[C@H](Cc2ccccc2)NC(=O)[C@H](Cc2ccc(O)cc2)NC(=O)CNC(=O)[C@H](CC(=O)O)NC(=O)C(C)(C)NC(=O)[C@H](Cc2c[nH]cn2)NC(=O)[C@@H](NC(=O)[C@H](CC(N)=O)NC(=O)[C@H]2CCCN2C(=O)[C@H](CCCCN)NC(=O)[C@H](CO)NC(=O)[C@H](CCC(N)=O)NC(=O)[C@H](Cc2ccccc2)NC(C)=O)C(C)C)C(N)=O)C1=O (some centres unmarked) [JBT00002385, Ac-FQSKpNVH-Aib-DGYFERL-Aib-AKLC(NEM)-NH2]",51.50

# System: TFPI
# Assay: Extrinsic Tenase Inhibition assay | % Inhibition @ 2.5μM
row,Compound,Extrinsic Tenase Inhibition assay | % Inhibition @ […] [%]
1,Ac-FQSK-Nmg-NVFVAGYFERLRAKL-NH2 (SEQ ID NO: 161) (Ac-FQSK[Sar]NVFVAGYFERLRAKL-NH2; SMILES CC(=O)N[C@@H](Cc1ccccc1)C(=O)N[C@@H](CCC(N)=O)C(=O)N[C@@H](CO)C(=O)N[C@@H](CCCCN)C(=O)N(C)CC(=O)N[C@@H](CC(N)=O)C(=O)N[C@H](C(=O)N[C@@H](Cc1ccccc1)C(=O)N[C@H](C(=O)N[C@@H](C)C(=O)NCC(=O)N[C@@H](Cc1ccc(O)cc1)C(=O)N[C@@H](Cc1ccccc1)C(=O)N[C@@H](CCC(=O)O)C(=O)N[C@@H](CCCNC(=N)N)C(=O)N[C@@H](CC(C)C)C(=O)N[C@@H](CCCNC(=N)N)C(=O)N[C@@H](C)C(=O)N[C@@H](CCCCN)C(=O)N[C@@H](CC(C)C)C(N)=O)C(C)C)C(C)C) [JBT1396],34
2,Ac-FQSK-Nmg-NVFVTGYFERL-Aib-AKL-NH2 (SEQ ID NO: 165) (Ac-FQSK[Sar]NVFVTGYFERL[Aib]AKL-NH2; SMILES CC(=O)N[C@@H](Cc1ccccc1)C(=O)N[C@@H](CCC(N)=O)C(=O)N[C@@H](CO)C(=O)N[C@@H](CCCCN)C(=O)N(C)CC(=O)N[C@@H](CC(N)=O)C(=O)N[C@H](C(=O)N[C@@H](Cc1ccccc1)C(=O)N[C@H](C(=O)N[C@H](C(=O)NCC(=O)N[C@@H](Cc1ccc(O)cc1)C(=O)N[C@@H](Cc1ccccc1)C(=O)N[C@@H](CCC(=O)O)C(=O)N[C@@H](CCCNC(=N)N)C(=O)N[C@@H](CC(C)C)C(=O)NC(C)(C)C(=O)N[C@@H](C)C(=O)N[C@@H](CCCCN)C(=O)N[C@@H](CC(C)C)C(N)=O)[C@@H](C)O)C(C)C)C(C)C) [JBT1585],48
3,Ac-FQSK-Nmg-NVFVTGYFERLRAKL-NH2 (SEQ ID NO: 125) (Ac-FQSK[Sar]NVFVTGYFERLRAKL-NH2; SMILES CC(=O)N[C@@H](Cc1ccccc1)C(=O)N[C@@H](CCC(N)=O)C(=O)N[C@@H](CO)C(=O)N[C@@H](CCCCN)C(=O)N(C)CC(=O)N[C@@H](CC(N)=O)C(=O)N[C@H](C(=O)N[C@@H](Cc1ccccc1)C(=O)N[C@H](C(=O)N[C@H](C(=O)NCC(=O)N[C@@H](Cc1ccc(O)cc1)C(=O)N[C@@H](Cc1ccccc1)C(=O)N[C@@H](CCC(=O)O)C(=O)N[C@@H](CCCNC(=N)N)C(=O)N[C@@H](CC(C)C)C(=O)N[C@@H](CCCNC(=N)N)C(=O)N[C@@H](C)C(=O)N[C@@H](CCCCN)C(=O)N[C@@H](CC(C)C)C(N)=O)[C@@H](C)O)C(C)C)C(C)C) [JBT1155],32
4,Ac-FQSKGNVFvFGYFERLRAKL-NH2 (SEQ ID NO: 936) (Ac-FQSKGNVF[dV]FGYFERLRAKL-NH2; SMILES CC(=O)N[C@@H](Cc1ccccc1)C(=O)N[C@@H](CCC(N)=O)C(=O)N[C@@H](CO)C(=O)N[C@@H](CCCCN)C(=O)NCC(=O)N[C@@H](CC(N)=O)C(=O)N[C@H](C(=O)N[C@@H](Cc1ccccc1)C(=O)N[C@@H](C(=O)N[C@@H](Cc1ccccc1)C(=O)NCC(=O)N[C@@H](Cc1ccc(O)cc1)C(=O)N[C@@H](Cc1ccccc1)C(=O)N[C@@H](CCC(=O)O)C(=O)N[C@@H](CCCNC(=N)N)C(=O)N[C@@H](CC(C)C)C(=O)N[C@@H](CCCNC(=N)N)C(=O)N[C@@H](C)C(=O)N[C@@H](CCCCN)C(=O)N[C@@H](CC(C)C)C(N)=O)C(C)C)C(C)C) [JBT1149],0
5,Ac-FQSKKNVFFFGYFERLRAKL-NH2 (SEQ ID NO: 735) [JBT1152],0
6,Ac-FQSKKNVFVFGYFERLRAKD-NH2 (SEQ ID NO: 937) [JBT1151],0
7,Ac-FQSKpNVFVFGYFERLRAKL-NH2 (SEQ ID NO: 129) (Ac-FQSK[dP]NVFVFGYFERLRAKL-NH2; SMILES CC(=O)N[C@@H](Cc1ccccc1)C(=O)N[C@@H](CCC(N)=O)C(=O)N[C@@H](CO)C(=O)N[C@@H](CCCCN)C(=O)N1CCC[C@@H]1C(=O)N[C@@H](CC(N)=O)C(=O)N[C@H](C(=O)N[C@@H](Cc1ccccc1)C(=O)N[C@H](C(=O)N[C@@H](Cc1ccccc1)C(=O)NCC(=O)N[C@@H](Cc1ccc(O)cc1)C(=O)N[C@@H](Cc1ccccc1)C(=O)N[C@@H](CCC(=O)O)C(=O)N[C@@H](CCCNC(=N)N)C(=O)N[C@@H](CC(C)C)C(=O)N[C@@H](CCCNC(=N)N)C(=O)N[C@@H](C)C(=O)N[C@@H](CCCCN)C(=O)N[C@@H](CC(C)C)C(N)=O)C(C)C)C(C)C) [JBT1162],51
8,Ac-[CFQSKGNVFVDGYFERLC]AKL-NH2 (SEQ ID NO: 402) (Ac-CFQSKGNVFVDGYFERLCAKL-NH2; disulfide 1-18) [JBT1592],11

# System: TFPI
# Assay: IC50 ELISA | Mean IC50 [nM]
# Source text: Table printed on a drawing sheet, FIGURE 78Z
# Head of the field: IC50 ELISA | Mean IC50 [nM]
# First copying reader's note: Continued table: the first body row (45.67) belongs to a compound on the preceding sheet, the last row probably continues on the next sheet, and cells with several values list single replicates.
row,Compound,IC50 [nM]
1,"CCCCCCCCCCCCCCCC(=O)NCCCOCCOCCOCCCNC(=O)CCC(=O)NCCCC[C@H](NC(=O)[C@H](CC(C)C)NC(=O)[C@H](CCCCN)NC(=O)[C@H](C)NC(=O)C(C)(C)NC(=O)[C@H](CC(C)C)NC(=O)[C@H](CCCNC(=N)N)NC(=O)[C@H](CCC(=O)O)NC(=O)[C@H](Cc1ccccc1)NC(=O)[C@H](Cc1ccc(O)cc1)NC(=O)[C@@H](C)NC(=O)[C@H](CC(=O)O)NC(=O)[C@@H](NC(=O)[C@H](Cc1c[nH]cn1)NC(=O)[C@@H](NC(=O)[C@H](CSCNC(C)=O)NC(=O)[C@H]1CCCN1C(=O)[C@H](CCCCN)NC(=O)[C@H](CO)NC(=O)[C@H](CCC(N)=O)NC(=O)[C@H](Cc1ccccc1)NC(=O)CCCCC)C(C)C)C(C)(C)C)C(N)=O [JBT00002532, Hex-FQSKp-Cys(Acm)-VH-Tle-DaYFERL-Aib-AKLK(Ttds- Palm)--NH2] (Hexanoyl-FQSK[dP]C(Acm)VH[Tle]D[dA]YFERL[Aib]AKLK([Suc-TTDA(Palmitoyl)])-NH2)",36.7

# System: not listed separately
# Assay: FIGURE 78Z
Compound,24 h Human Plasma Stability | Mean Remaining [%],24 h Mouse Plasma Stability | Mean Remaining [%]
"CCCCCCCCCCCCCCCC(=O)NCCCOCCOCCOCCCNC(=O)CCC(=O)NCCCC[C@H](NC(=O)[C@H](CC(C)C)NC(=O)[C@H](CCCCN)NC(=O)[C@H](C)NC(=O)C(C)(C)NC(=O)[C@H](CC(C)C)NC(=O)[C@H](CCCNC(=N)N)NC(=O)[C@H](CCC(=O)O)NC(=O)[C@H](Cc1ccccc1)NC(=O)[C@H](Cc1ccc(O)cc1)NC(=O)[C@@H](C)NC(=O)[C@H](CC(=O)O)NC(=O)[C@@H](NC(=O)[C@H](Cc1c[nH]cn1)NC(=O)[C@@H](NC(=O)[C@H](CSCNC(C)=O)NC(=O)[C@H]1CCCN1C(=O)[C@H](CCCCN)NC(=O)[C@H](CO)NC(=O)[C@H](CCC(N)=O)NC(=O)[C@H](Cc1ccccc1)NC(=O)CCCCC)C(C)C)C(C)(C)C)C(N)=O [JBT00002532, Hex-FQSKp-Cys(Acm)-VH-Tle-DaYFERL-Aib-AKLK(Ttds- Palm)--NH2] (Hexanoyl-FQSK[dP]C(Acm)VH[Tle]D[dA]YFERL[Aib]AKLK([Suc-TTDA(Palmitoyl)])-NH2)",107.70,67.50
(Hex-FQSKp-Cys(Acm)-VH-Tle-DaYFERL-Aib-AKLC- NH2)2-M2TriO [JBT00002533],185.13,52.65
Hex-FQSKp-Cys(Acm)-VH-Tle-DaYFERL-Aib-AKLC(ME- 400MA)-NH2 [JBT00002534],59.83,69.87
